Tests used:
velvetleaf = experiment: Test B pre/postemergence velvetleaf; format: in vivo, Abutilon theophrasti; details: for Plant response rating, Velvetleaf: scale of 0 to 10 where 0 is no effect and 10 is complete control
Outline: (§1)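 Response is a visual 0-to-10 score relative to untreated plants, where 0 means no effect and 10 means complete control, taken twelve to sixteen days after application. Treatments went onto soil at planting and onto foliage of 1- to 4-leaf plants, using a surfactant-containing non-phytotoxic solvent.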

purple nutsedge = experiment: Test B pre/postemergence purple nutsedge; format: in vivo, Cyperus rotundus; details: for Plant response rating, Nutsedge: scale of 0 to 10 where 0 is no effect and 10 is complete control
Outline: as §1

crabgrass = experiment: Test B pre/postemergence crabgrass; format: in vivo, Digitaria sanguinalis
Outline: as §1

wild oat = experiment: Test B pre/postemergence wild oat; format: in vivo, Avena fatua; details: for Plant response rating, Wild oats: scale of 0 to 10 where 0 is no effect and 10 is complete control
Outline: as §1

duck salad = experiment: Test B flood test duck salad; format: in vivo, Heteranthera limosa
Outline: (§2)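 Flood test on plants grown to the 2-leaf stage; treated plants kept in greenhouse twelve to sixteen days, then visually rated against controls on a 0 (no effect) to 10 (complete control) scale.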

giant foxtail = experiment: Test B pre/postemergence giant foxtail; format: in vivo, Setaria faberii
Outline: as §1

sugar beet = experiment: Test B pre/postemergence sugar beet; format: in vivo, Beta vulgaris; details: for Plant response rating, Sugarbeets: scale of 0 to 10 where 0 is no effect and 10 is complete control
Outline: as §1

pigweed = experiment: Test B pre/postemergence pigweed; format: in vivo, Amaranthus retroflexus; details: for Plant response rating, Redroot pigweed: scale of 0 to 10 where 0 is no effect and 10 is complete control
Outline: as §1

rape = experiment: Test B pre/postemergence rape; format: in vivo, Brassica napus; details: for Plant response rating, Rape: scale of 0 to 10 where 0 is no effect and 10 is complete control
Outline: as §1

bamyardgrass = experiment: Test B flood test barnyardgrass; format: in vivo, Echinochloa crus-galli
Outline: as §2

morningglory = experiment: Test B pre/postemergence morningglory; format: in vivo, Ipomoea hederacea; details: for Plant response rating, Morningglory: scale of 0 to 10 where 0 is no effect and 10 is complete control
Outline: as §1

cocklebur = experiment: Test B pre/postemergence cocklebur; format: in vivo, Xanthium strumarium
Outline: as §1

corn = experiment: Test B pre/postemergence corn; format: in vivo, Zea mays
Outline: as §1

wheat = experiment: Test B pre/postemergence wheat; format: in vivo, Triticum aestivum; details: for Plant response rating, Wheat: scale of 0 to 10 where 0 is no effect and 10 is complete control
Outline: as §1

soybean = experiment: Test B pre/postemergence soybean; format: in vivo, Glycine max; details: for Plant response rating, Soybean: scale of 0 to 10 where 0 is no effect and 10 is complete control
Outline: as §1

rice = experiment: Test B flood test rice; format: in vivo, Oryza sativa
Outline: as §2

[1] = Postemergence, Rate 250 g/ha, scale 0 to 10
[2] = Preemergence, Rate 250 g/ha, scale 0 to 10, 0 is no effect, 10 is complete control
[3] = Preemergence, Rate 500 g/ha, scale 0 to 10, 0 is no effect, 10 is complete control
[4] = Rate 62 g/ha, Postemergence, scale 0 to 10, 0 no effect, 10 complete control
[5] = Rate 125 g/ha, Postemergence, scale 0 to 10, 0 is no effect, 10 is complete control
[6] = Postemergence, Rate 500 g/ha, scale of 0 to 10 where 0 is no effect and 10 is complete control
[7] = Preemergence, Rate 62 g/ha, scale of 0 to 10 where 0 is no effect and 10 is complete control
[8] = Preemergence, Rate 125 g/ha, scale of 0 to 10 where 0 is no effect and 10 is complete control
[9] = Rate 62 g/ha, flood test species, Pre-emergence, visual evaluation after twelve to sixteen days
[10] = Rate 125 g/ha, under heading Pre-emergence, flood test species, visual evaluation after twelve to sixteen days
[11] = Rate 250 g/ha, Pre-emergence (flood test species), scale 0 to 10, 0 is no effect, 10 is complete control
[12] = Rate 500 g/ha, Pre-emergence, flood test species, scale 0 to 10 (0 no effect, 10 complete control)

CC(C)N(C(=O)n1oc(=O)n(C(C)C#N)c1=O)c1ccc(Cl)cc1 (stereo not shown) [Compound 451]
Velvetleaf plant response rating (velvetleaf; [1]): 0
Plant response rating, Velvetleaf (velvetleaf; Preemergence, Rate 62 g/ha): 0
Plant response rating, Velvetleaf (velvetleaf; Preemergence, Rate 125 g/ha): 0
Velvetleaf plant response rating (velvetleaf; [2]): 0
Velvetleaf plant response rating (velvetleaf; [3]): 0
Velvetleaf plant response rating (velvetleaf; [4]): 0
Velvetleaf plant response rating (velvetleaf; [5]): 0
Nutsedge plant response rating (purple nutsedge; [1]): 0
Plant response rating, Nutsedge (purple nutsedge; Preemergence, Rate 62 g/ha): 0
Plant response rating, Nutsedge (purple nutsedge; Preemergence, Rate 125 g/ha): 0
Nutsedge plant response rating (purple nutsedge; [3]): 0
Nutsedge plant response rating (purple nutsedge; [4]): 0
Nutsedge plant response rating (purple nutsedge; [5]): 0
Crabgrass plant response rating (crabgrass; [1]): 4
Crabgrass plant response rating (crabgrass; [6]): 6
Plant response rating, Crabgrass (crabgrass; [7]): 0
Plant response rating, Crabgrass (crabgrass; [8]): 0
Crabgrass plant response rating (crabgrass; [2]): 1
Crabgrass plant response rating (crabgrass; [3]): 7
Crabgrass plant response rating (crabgrass; [4]): 0
Crabgrass plant response rating (crabgrass; [5]): 0
Wild oats plant response rating (wild oat; [1]): 0
Plant response rating, Wild oats (wild oat; Preemergence, Rate 62 g/ha): 0
Plant response rating, Wild oats (wild oat; Preemergence, Rate 125 g/ha): 0
Wild oats plant response rating (wild oat; [2]): 0
Wild oats plant response rating (wild oat; [3]): 0
Wild oats plant response rating (wild oat; [4]): 0
Wild oats plant response rating (wild oat; [5]): 0
Plant response rating, Ducksalad (0 to 10 scale, 0 is no effect, 10 is complete control) (duck salad; [9]): 0
Ducksalad plant response rating (0 to 10 scale, 0 is no effect, 10 is complete control) (duck salad; [10]): 0
Ducksalad plant response rating (duck salad; [11]): 0
Ducksalad plant response rating (duck salad; [12]): 0
Giant foxtail plant response rating (giant foxtail; [1]): 3
Giant foxtail plant response rating (giant foxtail; [6]): 7
Plant response rating, Giant foxtail (giant foxtail; [7]): 0
Plant response rating, Giant foxtail (giant foxtail; [8]): 0
Giant foxtail plant response rating (giant foxtail; [2]): 4
Giant foxtail plant response rating (giant foxtail; [3]): 7
Giant foxtail plant response rating (giant foxtail; [4]): 0
Giant foxtail plant response rating (giant foxtail; [5]): 0
Sugarbeets plant response rating (sugar beet; [1]): 0
Plant response rating, Sugarbeets (sugar beet; Preemergence, Rate 62 g/ha): 0
Plant response rating, Sugarbeets (sugar beet; Preemergence, Rate 125 g/ha): 0
Sugarbeets plant response rating (sugar beet; [2]): 0
Sugarbeets plant response rating (sugar beet; [3]): 0
Sugarbeets plant response rating (sugar beet; [4]): 0
Sugarbeets plant response rating (sugar beet; [5]): 0
Redroot pigweed plant response rating (pigweed; [1]): 0
Plant response rating, Redroot pigweed (pigweed; Preemergence, Rate 62 g/ha): 0
Plant response rating, Redroot pigweed (pigweed; Preemergence, Rate 125 g/ha): 0
Redroot pigweed plant response rating (pigweed; [2]): 0
Redroot pigweed plant response rating (pigweed; [3]): 0
Redroot pigweed plant response rating (pigweed; [4]): 0
Redroot pigweed plant response rating (pigweed; [5]): 0
Rape plant response rating (rape; [1]): 0
Plant response rating, Rape (rape; Preemergence, Rate 62 g/ha): 0
Plant response rating, Rape (rape; Preemergence, Rate 125 g/ha): 0
Rape plant response rating (rape; [2]): 0
Rape plant response rating (rape; [3]): 0
Rape plant response rating (rape; [4]): 0
Rape plant response rating (rape; [5]): 0
Plant response rating, Barnyardgrass (0 to 10 scale, 0 is no effect, 10 is complete control) (bamyardgrass; [9]): 0
Barnyardgrass plant response rating (0 to 10 scale, 0 is no effect, 10 is complete control) (bamyardgrass; [10]): 0
Barnyardgrass plant response rating (bamyardgrass; [11]): 0
Barnyardgrass plant response rating (bamyardgrass; [12]): 0
Morningglory plant response rating (morningglory; [1]): 1
Plant response rating, Morningglory (morningglory; Preemergence, Rate 62 g/ha): 0
Plant response rating, Morningglory (morningglory; Preemergence, Rate 125 g/ha): 0
Morningglory plant response rating (morningglory; [2]): 0
Morningglory plant response rating (morningglory; [3]): 0
Morningglory plant response rating (morningglory; [4]): 1
Morningglory plant response rating (morningglory; [5]): 1
Cocklebur plant response rating (cocklebur; [1]): 0
Cocklebur plant response rating (cocklebur; [6]): 0
Plant response rating, Cocklebur (cocklebur; [7]): 0
Plant response rating, Cocklebur (cocklebur; [8]): 0
Cocklebur plant response rating (cocklebur; [2]): 0
Cocklebur plant response rating (cocklebur; [3]): 0
Cocklebur plant response rating (cocklebur; [4]): 0
Cocklebur plant response rating (cocklebur; [5]): 0
Corn plant response rating (corn; [1]): 0
Corn plant response rating (corn; [6]): 0
Plant response rating, Corn (corn; [7]): 0
Plant response rating, Corn (corn; [8]): 0
Corn plant response rating (corn; [2]): 0
Corn plant response rating (corn; [3]): 0
Corn plant response rating (corn; [4]): 0
Corn plant response rating (corn; [5]): 0
Wheat plant response rating (wheat; [1]): 0
Plant response rating, Wheat (wheat; Preemergence, Rate 62 g/ha): 0
Plant response rating, Wheat (wheat; Preemergence, Rate 125 g/ha): 0
Wheat plant response rating (wheat; [2]): 0
Wheat plant response rating (wheat; [3]): 0
Wheat plant response rating (wheat; [4]): 0
Wheat plant response rating (wheat; [5]): 0
Soybean plant response rating (soybean; [1]): 1
Plant response rating, Soybean (soybean; Preemergence, Rate 62 g/ha): 0
Plant response rating, Soybean (soybean; Preemergence, Rate 125 g/ha): 0
Soybean plant response rating (soybean; [2]): 0
Soybean plant response rating (soybean; [3]): 0
Soybean plant response rating (soybean; [4]): 0
Soybean plant response rating (soybean; [5]): 1
Plant response rating, Rice (0 to 10 scale, 0 is no effect, 10 is complete control) (rice; [9]): 0
Rice plant response rating (0 to 10 scale, 0 is no effect, 10 is complete control) (rice; [10]): 0
Rice plant response rating (rice; [11]): 0
Rice plant response rating (rice; [12]): 0

Reference: patent US6737383B1, “Herbicidal oxadiazolidines” (priority 1999, dated 2004)
